Measurements as given in patent US20060079453A1, “Hla binding peptides and their uses” (priority 2002, published 2006).
“And” between values parts separate entries of the source, which are not always exact repeats. Equal entries are not always repeated. Where two headings read alike, the source gives them in different places. No end group written: not given here.

Assays:
[1] = molecular target: H-2 Db (Mus musculus, UniProt P01899); assay: biochemical; format: binding, murine
[2] = molecular target: HLA-A*2902 (Homo sapiens, UniProt P04439, A270S/D101N/D185E/E176V/E277Q/E87Q/F33T/G231S/H175R/I121M/I218V/I322F/K168Q/L300P/L318F/M331R/P208A/P217A/Q86L/T323A/T345S/V100A/V358M); assay: MHC molecular binding / Capture assay, IC50: A*2902
[3] = molecular target: HLA-A*3002 (Homo sapiens, UniProt P04439, D101N/D140H/D185E/E176R/F33S/G80R/H175R/K168Q/Q94H/R138E/R41S/V100E); assay: biochemical; format: binding
[4] = molecular target: HLA-A*0101 (Homo sapiens, UniProt P04439, A114D/A174V/A182V/D101N/D185E/E176A/E190D/L180R/Q94H/R68K/S129P/T187R/V100A/V91M/W191G); assay: biochemical; format: binding; conditions: Binding affinity to A*0101 (expressed as an IC50)
[5] = molecular target: HLA-A*2402 (Homo sapiens, UniProt P04439, D101N/D140Y/D185E/E176V/E190D/F33S/G103R/G107R/I119L/I121M/I306V/K335N/L105A/L180Q/L300P/N151K/N90K/Q86E/Q94H/R106L/R138H/R89G/T104I/T345S/V100E/W191G/Y123F); assay: MHC molecular binding / Capture assay, IC50: A*2402
[6] = molecular target: HLA-A*2301 (Homo sapiens, UniProt P04439, D101N/D140Y/D185E/E176V/E190D/F33S/G103R/G107R/H175R/I119L/I121M/I306V/K168Q/K335N/L105A/L300P/N151K/N90K/P307H/Q86E/Q94H/R106L/R138H/R89G/T104I/T345S/V100E/W191G/Y123F); assay: biochemical; format: binding
[7] = Binding affinity to A*2902 (expressed as an IC50)
[8] = Binding affinity to A*3002 (expressed as an IC50)

Chain of H-2 Db (P61769 21-119): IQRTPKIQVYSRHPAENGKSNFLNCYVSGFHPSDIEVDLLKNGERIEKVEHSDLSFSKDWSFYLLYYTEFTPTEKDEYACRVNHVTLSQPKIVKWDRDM
Chain of H-2 Db (P01899 25-362): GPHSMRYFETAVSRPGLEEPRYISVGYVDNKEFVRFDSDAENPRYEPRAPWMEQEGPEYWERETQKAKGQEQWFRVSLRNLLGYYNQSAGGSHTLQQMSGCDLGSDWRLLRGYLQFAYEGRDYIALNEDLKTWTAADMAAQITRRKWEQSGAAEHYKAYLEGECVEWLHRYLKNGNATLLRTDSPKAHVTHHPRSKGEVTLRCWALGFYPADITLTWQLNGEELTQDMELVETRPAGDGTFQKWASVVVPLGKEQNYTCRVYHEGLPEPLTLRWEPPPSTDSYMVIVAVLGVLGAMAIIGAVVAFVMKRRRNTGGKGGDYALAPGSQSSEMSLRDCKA

## FQPQNGQFI
[1]; Db
  IC50: 6.9 nM and 4.9 nM and 17 nM

## EYDHYCYSLY
[2]
  IC50: 799 nM
[3]
  IC50: 77 nM
[4]
  IC50: 110000 nM

## YTDGPGIRY
[2]
  IC50: 562 nM
[3]
  IC50: 7910 nM
[4]
  IC50: 11 nM

## CC[C@H](C)[C@H](NC(=O)[C@@H](NC(=O)[C@@H]1CCCN1C(=O)[C@H](Cc1c[nH]cn1)NC(=O)[C@H](CO)NC(=O)[C@H](Cc1ccc(O)cc1)NC(=O)[C@@H](N)CC(C)C)[C@@H](C)CC)C(=O)N[C@@H](CC(C)C)C(=O)NCC(=O)N[C@@H](Cc1ccccc1)C(=O)O
[5]
  IC50: 2.6 nM
[6]
  IC50: 5.4 nM
[4]
  IC50: 3170 nM

## FAPGYNPAL [FAPGYNPAL]
[1]; Db
  IC50: 2 nM

## CC[C@H](C)[C@H](NC(=O)[C@H](CCC(=O)O)NC(=O)[C@@H]1CCCN1C(=O)[C@@H]1CCCN1C(=O)[C@@H](NC(=O)[C@H](CC(N)=O)NC(=O)[C@H](CO)NC(=O)[C@@H]1CCCN1C(=O)CNC(=O)[C@@H](N)CO)[C@@H](C)O)C(=O)O
[1]; Db
  IC50: 8.1 nM

## CC[C@H](C)[C@H](NC(=O)[C@H](Cc1ccccc1)NC(=O)[C@H](CCC(N)=O)NC(=O)CNC(=O)[C@H](CC(N)=O)NC(=O)[C@H](CCC(N)=O)NC(=O)[C@@H]1CCCN1C(=O)[C@H](CCC(N)=O)NC(=O)[C@@H](N)Cc1ccccc1)C(=O)N[C@@H](Cc1c[nH]cn1)C(=O)N[C@@H](Cc1ccccc1)C(=O)N[C@@H](Cc1ccc(O)cc1)C(=O)O
[1]; Db
  IC50: 280 nM

## SQVMNLHNL
[1]; Db
  IC50: 2.3 nM

## TALANTIEY
[1]; read-out: Db
  IC50: 3.7 nM

## CC[C@H](C)[C@H](NC(=O)[C@H](CC(=O)O)NC(=O)[C@H](CCC(N)=O)NC(=O)[C@@H](N)CCCNC(=N)N)C(=O)N[C@@H](CC(C)C)C(=O)N[C@@H](CC(=O)O)C(=O)N[C@@H](CC(C)C)C(=O)N[C@@H](Cc1c[nH]c2ccccc12)C(=O)N[C@H](C(=O)N[C@@H](Cc1ccc(O)cc1)C(=O)O)C(C)C
[2]; [7]
  IC50: 13900 nM
[3]; [8]
  IC50: 95 nM
[4]
  IC50: 9000 nM

## CC[C@H](C)[C@H](N)C(=O)N[C@@H](CO)C(=O)N[C@@H](CCC(=O)O)C(=O)N[C@@H](Cc1ccc(O)cc1)C(=O)N[C@@H](CCCNC(=N)N)C(=O)N[C@@H](Cc1c[nH]cn1)C(=O)N[C@@H](Cc1ccc(O)cc1)C(=O)N[C@@H](CC(N)=O)C(=O)N[C@@H](Cc1ccc(O)cc1)C(=O)O
[6]
  IC50: > 23600 nM
[3]; [8]
  IC50: 32 nM
[4]
  IC50: 25 nM

## RMIQNSLTI
[1]; Db
  IC50: 4.6 nM

## TLEKGPGPGLY
[2]; [7]
  IC50: 2040 nM
[3]; [8]
  IC50: 40 nM
[4]
  IC50: 13 nM

## GMRQNATEI
[1]; Db
  IC50: 81 nM

## KQYLNLYPV
[1]; Db
  IC50: 3.4 nM

## CC(C)C[C@H](NC(=O)CNC(=O)[C@@H](NC(=O)[C@H](CC(N)=O)NC(=O)[C@@H](NC(=O)[C@H](CC(C)C)NC(=O)[C@H](CCCCN)NC(=O)[C@H](CCC(=O)O)NC(=O)[C@H](CC(C)C)NC(=O)[C@@H](N)[C@@H](C)O)[C@@H](C)O)[C@@H](C)O)C(=O)N[C@@H](Cc1ccc(O)cc1)C(=O)O
[2]
  IC50: 991 nM
[2]; [7]
  IC50: 5500 nM
[3]
  IC50: 92 nM
[4]
  IC50: 77 nM and 23 nM

## SFYRNLLWL
[1]; Db
  IC50: 46 nM and 304 nM

## CC[C@H](C)[C@H](NC(=O)[C@@H](NC(=O)[C@@H](NC(=O)[C@H](Cc1ccccc1)NC(=O)[C@H](C)NC(=O)[C@H](CCCNC(=N)N)NC(=O)CNC(=O)[C@@H]1CCCN1C(=O)CNC(=O)[C@@H](N)CCCNC(=N)N)C(C)C)[C@@H](C)O)C(=O)O
[1]; Db
  IC50: 22000 nM

## FTSKVRKYRY
[2]
  IC50: 6680 nM
[3]
  IC50: 52 nM
[4]
  IC50: 64 nM and 37 nM

## STVKHHMY
[2]
  IC50: 1760 nM
[3]
  IC50: 68 nM
[4]
  IC50: 8130 nM

## ETRHYNYSLY
[2]
  IC50: 5460 nM
[3]
  IC50: 29 nM
[4]
  IC50: 445 nM

## ELDSALEIPY
[2]
  IC50: 82200 nM
[3]
  IC50: 38300 nM
[4]
  IC50: 38 nM

## RTAKQHTCY
[2]
  IC50: 130000 nM
[3]
  IC50: 346 nM
[4]
  IC50: 5650 nM

## SGVENPGGYCM
[1]; Db
  IC50: 128 nM

## QTEQATSNYY
[2]
  IC50: 9580 nM
[3]
  IC50: 500 nM
[4]
  IC50: 11 nM

## AAAANAAAM
[1]; Db
  IC50: 23 nM

## CSCC[C@H](NC(=O)[C@H](C)NC(=O)[C@H](C)NC(=O)[C@H](C)NC(=O)[C@H](CC(N)=O)NC(=O)[C@H](C)NC(=O)[C@H](C)NC(=O)[C@H](C)NC(=O)[C@H](C)NC(=O)[C@H](C)NC(=O)[C@H](C)N)C(=O)O
[1]; Db
  IC50: 257 nM

## QNADKNFLY
[2]; [7]
  IC50: 24 nM
[3]; [8]
  IC50: 663 nM
[4]
  IC50: 3810 nM

## YSDVRKYRYY
[2]
  IC50: 849 nM
[3]
  IC50: 794 nM
[4]
  IC50: 19 nM

## KTRYYDYSVY
[2]
  IC50: 87800 nM
[3]
  IC50: 0.71 nM
[4]
  IC50: 2960 nM
